How the values were obtained:
[1] = tested on: neuro-2a (mouse neuroblastoma cells); assay: Action on neuro-2a: proportion of cells containing outgrown neurites; type: cell-based; details: mean ± S.D.
Outline: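 Read-out is the percentage of neurite-bearing cells (neurite ≥2× long cell diameter), counted microscopically over more than 200 cells per well. Before fixation and staining, neuro-2a cells (1,000/well, DMEM + 10% FCS) were cultured for one day at 37 °C; up to six compound concentrations, three runs each.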

[2] = tested on: NS-20Y (mouse neuroblastoma cells); assay: Activity on NS-20Y cells: appearance of neurites; type: cell-based
Outline: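 Mouse neuroblastoma NS-20Y cells were grown in polyornithine-coated dishes in DMEM with 10 % FCS, 100 units/ml penicillin G sodium and 100 micrograms/ml streptomycin sulfate, at 37° C under 5 % carbon dioxide, and exposed to compound. Cells were fixed with 4 % glutaraldehyde, stained with 0.05 % methylene blue, and the fraction bearing neurites at least twice the cell's long diameter was counted microscopically.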

[3] = tested on: rats with crushed sciatic nerves; assay: Twitch tension of hind paw in rats with crushed sciatic nerves; type: in vivo, rat (male Wistar)
Method: (§1) The therapeutic effect of the compound of the invention was tested on rats having crushed sciatic nerves as a model of peripheral nervous disorder using (1) a change in the action of the hind paw with the crushed sciatic nerves and (2) a change in the weight of the muscle as an index of the course of degeneration and regeneration of peripheral nerves.
(§2) In the experiment, male Wistar rats (6 weeks old), seven per group, were used. The sciatic nerves were crushed by a method similar to the method of Yamatsu et al. (see Kiyomi Yamatsu, Takenori Kaneko, Akifumi Kitahara and Isao Ohkawa, Journal of Japanese Pharmacological Society, 72, 259-268 (1976) and the method of Hasegawa et al. (see Kazuo Hasegawa, Naoji Mikuni and Yutaka Sakai, Journal of Japanese Pharmacological Society, 74, 721-734 (1978). Specifically, under anesthesia with pentobarbital (40 mg/kg, i.p.), the left side sciatic nerve was exposed at the femur, and a specific site of the exposed sciatic nerve was crushed for 30 seconds by using a hemostat. After the crushing, the operation site was immediately sutured. Thereafter, vincristine known to retard the regeneration of the peripheral nerve was intraperitoneally administered in a dose of 100 g/kg once a week.
(§3) Compounds of the invention were selected as test drugs, and administered intraperitoneally once a day from the day of crushing to 30th day from then. To a control group, only 0.9 % saline was administered.
Twitch tension, which is a transient tension incident to contraction of the dominated muscles that occurs by electrical stimulation or the like of motor nerves, as is the case with the interdigit distance to be described, is considered to reflect functional changes of the nerves and muscles.
[…] J. Neurosci. Methods, 19, 259 (1987)]. Specifically, the hair on the hind paw of rats was shaven, and coated with Cardiocream (a product of Nihon Denko K.K.). Then, to the skin of the hind paw, electrodes with an alligator were attached The cathode was attached to the rear portion of the trochiter, and the […], to a site 1 cm rearwardly of the […] electrode and 1 cm toward its back. The rat was fixed on its back, and the hind paw to be measured was fixed perpendicularly. A silk yarn, about 20 cm long, was connected at one end to the third efferent toe joint of the hind paw to be measured and at the other end to a tension transducer. Isotonic contractions of the third muscle digitus flexus were recorded on a polygraph. Electrical stimulation was effected at a voltage of 100V for a continuous duration of 1 msec. with rectangular waves at a frequency of 2 Hz. The static tension was 15 to 30 g, and 10 stimulations were repeated 3 times with intervals of 15 seconds. The contracting force was expressed as tension (g). From the measured values of both paws, the recovery ratio (%, left/right) of the contracting force of the paw with crushed nerves was calculated.

[4] = tested on: rats with crushed sciatic nerves; assay: Weight of muscle extensor digitorum longus in rats with crushed sciatic nerves; type: in vivo, rat (male Wistar); details: thirty days after operation, mean ± S.D.
Method: as §1, §2, §3
It is known that removal of a nerve or its disorder causes atorphy of the muscle which is under its control, and the atrophy is gradually cured by re-control by the nerve. For this reason, a change in the weight of the muscle, which is quantitative, was selected as an index. Thirty days after the operation, the muscles extensor digitorum longus of both hind paws which are muscles under the control of sciatic nerves were extracted under anesthesia, and their weights were measured. The ratio of the weight of the muscle extensor digitorum longus on the crushed side to that of normal side was calculated and expressed in percentage (%).

[5] = tested on: rats with lesioned nigral dopaminergic nerve cells; assay: Motor imbalance (methamphetamine-induced rotation) after 6-hydroxydopamine lesion and transplantation of fetal cerebral cells; type: in vivo, rat (female Wistar)
Method: Nigral dopaminergic nerve cells at the left side of the brain of 4-week old female Wistar rats (body weight 100 g) were lesioned by injecting a very small quantity of 6-hydroxydopamine. […] Upon administration of methamphethamine (5 mg/kg, i.p.) to the rats having the lesioned nigral dopaminergic nerve cells, they began rotational movement toward the lesioned side.
After two weeks from the destruction by the administration of the drug, portions of the […] containing dopamine cells (i.e., substantial nigra and the tagmentum at the abdomen side) were cut from the brain of a fetal rat of 14 to 17 days of age, cut finely, and treated with trypsin. Then, the extracted tissues were incubated at 37° C. for 30 minutes, and the tissues were subjected to pipetting to form a suspension. Five microliters of the suspension was transplanted each into two sites of the caudate nucleus of the lesioned side (10 microliters in total, about 10^5 cells)
Compound No. 168 of the invention was administered in a dose of 156 mg/kg (i.p.) for 4 days from the day of transplantation, then with a suspension of 7 days, for 10 days in a dose of 50 mg/kg (i.p.) from the 11th day. Compound No. 296 was administered in a dose of 153 mg/kg, and then 50 mg/kg, in accordance with the same schedule.
Compound No. 3144 was also administered in accordance with the same schedule in a dose of 135 mg/kg, and then 45 mg/kg.
The rotational movements induced by administration of methamphetamine were examined 2 weeks and 1 week before, and 2 (or 3), 4, 6 and 8 weeks after, the transplantation and the administration of the drug. The number of rotational movements for the first one minute was counted at intervals of 10 minutes after the administration of methamphetamine, and the total number of rotational movements counted six times was averaged to find a mean number of the rotational movements.

[6] = Acute toxicity on mice; type: in vivo; details: mouse, in vivo, ip, 24 hours after administration; read-out: Estimated LD50
Method: The acute toxicity of the compounds of the invention was examined by the following method.
Male ddy-strain 5-week old mice, 4-6- per group, were used as experimental animals. Each of the compounds was intraperitoneally (i.p.), and the toxicity of the compound was assessed 24 hours after the administration.

[7] = tested on: rats having crushed sciatic nerves; assay: Interdigit distance in rats with crushed sciatic nerves; type: in vivo, rat (male Wistar); details: 30 mg/kg, i.p.
Method: as §1
as §2, with “Thereafter, vincristine known to retard the regeneration of the peripheral nerve was intraperitoneally administered in a dose of 100 g/kg once a week.” left out
By a method similar to the method of Hasegawa [Hasegawa, K., Experientia, 34, 750-751 (1978)], the distance between the first and fifth digits of the hind paw was measured.
The ratio of the measured distance to the interdigit distance in a normal hind paw was calculated and expressed in percentage (%). […]

[8] = Table 14, 30 mg/kg i.p. once a day, 30 days, mean ± S.D., 168: *3 p < 0.01, 296: *2 p < 0.05
[9] = 3 W after transplantation, i.p. 168: 156 then 50, 296: 153 then 50, 3144: 135 then 45 mg/kg
[10] = 4 W after transplantation, i.p. 168: 156 then 50, 296: 153 then 50, 3144: 135 then 45 mg/kg
[11] = 6 W after transplantation, i.p. 168: 156 then 50, 296: 153 then 50, 3144: 135 then 45 mg/kg
[12] = 8 W after transplantation, i.p. 168: 156 then 50, 296: 153 then 50, 3144: 135 then 45 mg/kg
[13] = -1 W (before transplantation and drug)

Row | SMILES | Number of cells having neurites with a length at least two times the diameter of each cell/total number of cells ([1]; 0.1 mM) | Number of cells having neurites with a length at least two times the diameter of each cell/total number of cells ([1]; 0.3 mM) | Number of cells in which neurites appeared/total number of cells ([2]; 24 hours, 0.1 mM) | Number of cells in which neurites appeared/total number of cells ([2]; 48 hours, 0.1 mM) | Twitch tension left/right [3, 8] | Weight of muscle extensor digitorum longus left/right ([4]; 30 mg/kg, *2 p < 0.05) | mean number of the rotational movements [5, 9] | mean number of the rotational movements [5, 10] | mean number of the rotational movements [5, 11] | mean number of the rotational movements [5, 12] | mean number of the rotational movements [5, 13] | LD50 at 24 h [6] | further results
1 | CN(C(=O)c1ccccc1)c1ccnc(N2CCC(c3ccccc3)CC2)n1 [Compound 168, 4-(N-methylbenzamino)-2-(4-phenylpiperidino)pyrimidine p-toluenesulfonate] | 35.7 ± 0.8% | 14.6 ± 4.3% | 26/50 | 20/55 | 51.2 ± 13.6% | 59.4 ± 11.8% | 9.1 ± 5.6 | 4.5 ± 4.5 | 1.5 ± 3.9 | 0.8 ± 2.1 | 13.3 ± 7.8 | > 1000 mg/kg | Number of cells having neurites with a length at least two times the diameter of each cell/total number of cells ([1]; 0.05 mM): 23.8 ± 2%; Number of cells having neurites with a length at least two times the diameter of each cell/total number of cells ([1]; 0.2 mM): 24.4 ± 6.9%; Number of cells in which neurites appeared/total number of cells ([2]; 24 hours, 0.25 mM): 12/50; Twitch tension left/right ([3]; Table 14, 10 mg/kg i.p. once a day, 30 days, mean ± S.D., *2 p < 0.05): 48.4 ± 11.8%; Weight of muscle extensor digitorum longus left/right ([4]; 10 mg/kg): 52.1 ± 5.4%
2 | CN(C(=O)c1ccco1)c1ccnc(N2CCC(c3ccccc3)CC2)n1 [Compound 296] | 44.4 ± 5.5% | 22.4 ± 3.0% | 9/49 | 2/50 | 48.1 ± 9.4% | 56.9 ± 9.7% | 8.4 ± 5.0 | 3.1 ± 3.4 | 0.9 ± 2.3 | 1.0 ± 1.5 | 13.2 ± 4.1 | > 1000 mg/kg | –
3 | CN1C(=O)Cc2cnc(N3CCN(C(c4ccccc4)c4ccc(Cl)cc4)CC3)nc21 (stereo not shown) [Compound 3144] | 34.1 ± 3.8% | 44.5 ± 9.7% | – | – | – | – | 7.7 ± 4.7 | 4.0 ± 5.6 | 0.2 ± 2.2 | 1.1 ± 4.1 | 14.1 ± 4.7 | 500 to 1000 mg/kg | Number of cells having neurites with a length at least two times the diameter of each cell/total number of cells ([1]; 0.03 mM): 20.8 ± 4.7%; Number of cells having neurites with a length at least two times the diameter of each cell/total number of cells ([1]; 1 mM): 32.2 ± 1.6%; Twitch tension left/right ([3]; Table 15, 30 mg/kg, 18th days): 54.5 ± 17.1%; Twitch tension left/right ([3]; Table 15, 30 mg/kg, 23rd days): 57.9 ± 15.5%; Recovery of the interdigit distance ([7]; 18th days): 72.7 ± 14.0%; Recovery of the interdigit distance ([7]; 23rd days): 83.8 ± 12.2%
